Measured values reported in patent US5378730A, “Permeation enhancer comprising ethanol and monoglycerides” (priority 1992, dated 1995).

Assay type: in vitro ADME, human
Procedure: The optimum range of water in a permeation-enhancing mixture when used with the drug sodium piroxicam, where the ratio of Myverol 99K monoglyceride to ethanol is 40 to 55.4 in the mixture, was determined as follows. Various ethanol/Myverol 18-99K/water donor compositions, in the weight ratios listed in Table C, were tested with sodium piroxicam to measure their effect upon the drug flux across human cadaver epidermis at 35° C. The ratio of ethanol to monoglyceride was initially 55.4 to 40, to which varying amounts of water were added. All donor compositions were saturated with the drug. Test data were obtained using a 1.13 cm^2 wet-wet horizontal flux cell with 0.2 ml donor solution and 20 ml receptor solutions (pH 7.4 phosphate buffer, 0.05 M).

## CN1C(C(=O)Nc2ccccn2)=C(O)c2ccccc2S1(=O)=O [sodium piroxicam]
  optimum range of water content in the permeation-enhancing mixture: 23-33 wt %
